Key:
[1] = tested on: P. aeruginosa PA14 biofilm; experiment: antibiotic challenge of biofilm on ziggurat peg lid (modified ASTM E2799-22), OD 600 reading and CFU count after sonication; assay type: cell-based, Pseudomonas aeruginosa PA14; details: peg 110, vs no antibiotic; for reduction in CFU on a per area basis: 24 h challenge; for OD600 mean reduction: biofilm recovered in PBS by sonication
Protocol: The applicability lid having pegs 110 with a ziggurat shape was evaluated to the relevant ATSM standard, E2799-22, modified workflow FIG. 6. Specifically, the pegs 110 were inoculated in a 24-well plate with media at step 300 and incubated at step 304. At step 308, the pegs 110 were then challenged with antibiotics and then incubated again at step 312. At step 316, the pegs were washed or rinsed and, at step 320, placed in PBS for imaging. The pegs 110 were sonicated, at step 324, to remove attached biofilm, which was quantified using OD 600 reading, at step 328, and a CFU count, at step 332. Importantly, the lid 100 could be handled in the same fashion as the commercially available peg lid. The pegs 110 were less rigidly attached to the lid 100 than the commercially available peg lid and could be broken off easily for a biofilm growth check, although due to the ring of biofilm at the air-medium interface typical of wild-type PA14, this could also be verified visually. Due to the design, it was also possible to image in situ. With respect to FIGS. 7A-7D, after imaging, OD 600 and CFU counts were performed to verify no loss of function between the lid 100 optimized for imaging and the commercially available peg lid. Specifically, the raw data and mean difference versus no antibiotics are shown for 100 μg/mL tetracycline, 10 μg/mL tetracycline on an OD 600 basis on the MBEC® Assay (FIG. 7A), the modified plate (FIG. 7B), and on a CFU/mm2 for PA14 (FIG. 7C). […] PA14 was grown on pegs in TSB for 24 hours before recovery. Wells were categorized as “inside” (e.g., those on the dash-dot line) or “outside” (e.g., those on the dashed line) according to the layout in FIG. 9B. The mean differences was plotted using bootstrap sampling distributions and 95% confidence interval is indicated by the ends of the vertical error bars using EstimationStats.
Experiments were conducted using Pseudomonas aeruginosa PA14, which constitutively expressed GFP. Cultures were grown over-night in tryptic soy broth (VWR International, USA) at 37° C. and 150 rpm. 10 μL of the overnight culture was used to inoculate 50 mL of fresh TSB. The growth plate (24 well, VWR International, USA) was prepared by dispensing […] of broth per well, adding the peg lid 100, and incubating for 24 h at 37° C. and 100 rpm. […]
Transfers between media and rinse plates were accomplished by lifting the peg lid 100, allowing excess liquid to drip off, and gently placing the lid 100 in the new plate. […] The efficacy of removal from the surface by sonication as not tested, however the resultant OD600 readings for P. aeruginosabetween this and the MBEC® assay were similar […]

[2] = tested on: P. aeruginosa PA14 biofilm streamers; experiment: in situ confocal laser scanning microscopy of biofilm and biofilm streamers on ziggurat peg after antibiotic challenge; assay type: cell-based, Pseudomonas aeruginosa PA14; details: 10 μg/mL
Text: The intent of this peg 110 is to optimize for in situ confocal imaging. Two imaging techniques were applied to evaluate this. With respect to FIG. 8B, the surface 128i of the distal-most portion 128i of the peg 110 was captured using a tile and z-stack approach. The biomass formed on the edges of the peg 110 and, in the “no antibiotic” samples, could be thick enough to scatter the fluorescent light emission. FIG. 8B illustrates selected 3D tiles of the surface of the surface 128i of the peg 110 with an area of 8.042 mm2. This is known to leave imaging artifacts resembling “holes” in the images observed in FIG. 8B (e.g., “No antibiotic”). Streamers, are often formed in this area. […] With respect to FIGS. 8A and 8C, the surface biomass on the second end 116 analyzed using COMSTAT 2.1 was plotted using EstimationStats. With respect to FIGS. 8D and 8F, the biomass on the second step 128h of the step analyzed using COMSTAT 2.1 was plotted using EstimationStats. […]
Pegs 110, 150, 160, 170, 180, 190 were imaged in PBS with an inverted Zeiss LSM 900 (Zeiss, Germany) using a 488 nm laser for excitation and detection wavelengths of […] (green) for GFP and 590-700 nm (red) for identifying autofluorescence. […] Biomass quantification of antibiotic plate images was performed using Comstat2 v2.1 as an ImageJ plugin. […]

## CN(C)[C@@H]1C(O)=C(C(N)=O)C(=O)[C@@]2(O)C(O)=C3C(=O)c4c(O)cccc4[C@@](C)(O)[C@H]3C[C@@H]12 [tetracycline]
[1]; 10 μg/mL tetracycline
  reduction in CFU on a per area basis: 0 fold
  OD600 mean reduction: 0.02
[1]; 100 μg/mL tetracycline
  reduction in CFU on a per area basis: 3 fold
  OD600 mean reduction: 0.03
[2]; no antibiotic streamer 309.09±10.43 μm
  streamer midpoint diameter as % of the no antibiotic streamer: 12.96%
[2]; streamer between surface 128i and step 128h, FIG. 8E
  approximate midpoint diameter of biofilm streamer: ~40.05±11.98 μm
